Laboratory results from the pKa sets of Baltruschat and Czodrowski (2020).

Details: acidic group
`CC[NH+](CC)Cc1cc(Cl)ccc1O` gave a pKa of 8.11.
Compound `O=[N+]([O-])c1ccc(-c2ccc(O)cc2)cc1` has a pKa of 9.01.
Compound `COC(=O)C1c2ccccc2-c2ccccc21` has a pKa of 11.5.
Work on `C[N+](C)(C)CCCC(=O)O` yielded a pKa of 4.02.
`CC(=O)NS(=O)(=O)c1ccc(N)cc1` gave a pKa of 5.35.
With `CSc1ccc(O)cc1` the pKa was 9.5.
Work on `Oc1c(I)cc(Cl)c2cccnc12` yielded a pKa of 7.9.
In the case of `OC(C[S-])CS`, the pKa is reported as 10.7.
Work on `[NH3+]Cc1ccc(C(=O)O)cc1` yielded a pKa of 3.59.
In the case of `COc1cccc(S)c1`, the pKa is reported as 6.39.
For `O=C([O-])CN(CC(=O)O)Cc1cc(Cl)cc(C[NH+](CC(=O)[O-])CC(=O)O)c1O`, the pKa was 2.2.
In the case of `O=C(CCl)Nc1nnc(-c2ccccc2)s1`, the pKa is reported as 6.9.
For `Oc1nc2cc3c(cc2[nH]1)CCCC3`, the pKa was 12.2.
`Nc1ccc(C(=O)O)cc1` showed a pKa of 4.84.
Work on `COc1c(Cl)cc(Cl)c(O)c1C(=O)NC1CC[NH+](C)CC1` yielded a pKa of 6.02.
For `O/N=C(/NO)c1ccccc1`, the pKa was 10.7.
Compound `O=C1NC(=O)c2cc([N+](=O)[O-])ccc21` has a pKa of 8.68.
With `C/C(=C\C=C\C(C)C(=O)O)[C@H]1C[NH2+][C@H](C(=O)[O-])[C@H]1CC(=O)O` (stereo partly specified) the pKa was 3.72.
For `CCc1ccc(OC)c(C(=O)NC[C@H]2CCC[NH+]2CC)c1O`, the pKa was 8.7.
In the case of `N#CCc1ccc(C(=O)O)cc1`, the pKa is reported as 4.09.
In the case of `CC(=O)CC(=S)Nc1cccc(C)c1`, the pKa is reported as 7.56.
For `O=S1(=O)N=CNc2nc[nH]c21`, the pKa was 5.59.
Compound `[NH3+]C(c1cccc(O)c1O)P(=O)([O-])O` (stereo unspecified) has a pKa of 5.06.
For `C[NH+](C)CCc1c[nH]c2cccc(O)c12`, the pKa was 8.47.
With `Cc1ccc(O)c(C(C)C)c1` the pKa was 10.7.
`O=C(O)[C@@H]1CCCN1C(=O)[C@@H]1CCC[NH2+]1` showed a pKa of 3.16.
In the case of `O=S(=O)(Nc1cccc(F)c1)c1ccccc1`, the pKa is reported as 7.54.
`O=[N+]([O-])c1n[nH]c(-n2cnc(Cl)n2)n1` gave a pKa of 1.59.
Compound `CS(=O)(=O)c1ccc(NS(=O)(=O)C(F)(F)F)cc1` has a pKa of 2.84.
`COC(=O)CCS` showed a pKa of 9.33.
`N#CCc1ccc(C#N)cc1[N+](=O)[O-]` gave a pKa of 11.4.
With `C[NH+](C)Cc1cc(F)ccc1O` the pKa was 8.12.
`Sc1cc2ccccc2cn1` gave a pKa of 8.58.
For `CC(C)CN(CC(C)C)C(=S)S`, the pKa was 3.4.
`O=C([O-])C1(C(=O)O)CCCC1` showed a pKa of 6.08.
Compound `C[NH+]1CSC[C@H]1C(=O)O` has a pKa of 1.51.
`Oc1cc(-c2ccccc2)no1` showed a pKa of 4.01.
For `Nc1ccc(-c2nnn[nH]2)cc1`, the pKa was 4.55.
`COc1ccccc1-c1ccccc1O` showed a pKa of 10.4.
With `C=C(OC)C(=O)O` the pKa was 3.38.
Compound `CC[NH2+]CCC(=O)O` has a pKa of 3.61.
`COCC1=C(C(=O)O)C2C=CC1C2` (stereo unspecified) showed a pKa of 4.59.
`OB(O)Cc1ccccc1` showed a pKa of 9.12.
With `Cn1c(=O)ccc2ccccc21` the pKa was -0.71.
For `CCCC[Se](=O)O`, the pKa was 5.29.
Work on `O=C1CC(=O)CC2(CCCCC2)C1` yielded a pKa of 5.2.
For `OC(O)c1ccccc1`, the pKa was 12.4.
With `[NH3+][C@@H](Cc1c[nH]c[nH+]1)C(=O)NCC(=O)O` the pKa was 2.4.
Compound `Cc1c(C(=O)O)cccc1[N+](=O)[O-]` has a pKa of 2.98.
Work on `CC#CC#CC=C=C[C@@H](O)CCC(=O)O` yielded a pKa of 4.9.
For `S=c1[nH]c(=S)c2[nH]cnc2[nH]1`, the pKa was 5.02.
`Oc1cccc2cccc(O)c12` gave a pKa of 6.71.
Work on `CC([SeH])C[NH3+]` (stereo unspecified) yielded a pKa of 5.19.
With `O=c1ccccc(O)c1[O-]` the pKa was 11.5.
Compound `ON=C(c1ccccc1)c1ccccc1` has a pKa of 11.3.
Work on `Cc1ccc(C(=O)c2ccccc2C(=O)O)cc1` yielded a pKa of 3.64.
In the case of `N#CSc1ccc(O)cc1`, the pKa is reported as 8.57.
With `O=S1(=O)Nc2cccc3cccc1c23` the pKa was 6.2.
Compound `O=S(=O)([O-])c1c(O)ccc2cn[nH]c12` has a pKa of 9.45.

Same assay, conditions: basic group
With `Nc1ccc2c(c1)CCC2` the pKa was 5.35.
With `CSc1nc(N)c2c(ncn2[C@H]2O[C@H](CO)[C@@H](O)[C@H]2O)n1` the pKa was 3.1.
`CC(=O)NS(=O)(=O)c1ccc(N)cc1` gave a pKa of 1.58.
In the case of `Oc1c(I)cc(Cl)c2cccnc12`, the pKa is reported as 2.61.
With `NCC[Se-]` the pKa was 10.9.
`CC1=CSC2=NCCN12` showed a pKa of 9.81.
With `CC1CN(C)CCN1C` (stereo unspecified) the pKa was 8.36.
With `[NH3+]c1ccc(-c2ncc(-c3ccccc3)o2)cc1` the pKa was 0.06.
In the case of `Cc1ccc(C2=NCCC2)cc1`, the pKa is reported as 6.41.
Work on `CC(=O)c1ccncc1` yielded a pKa of 3.6.
Work on `Nc1ccc(C(=O)O)cc1` yielded a pKa of 2.41.
`Nc1nnnn1-c1cccc([N+](=O)[O-])c1` gave a pKa of 0.47.
Work on `O/N=C(/NO)c1ccccc1` yielded a pKa of 3.8.
Compound `CN[C@H]1C(C)[C@@H]1[NH2+]C` (stereo partly specified) has a pKa of 5.68.
Compound `CCCCNCCNCCCC` has a pKa of 10.2.
`CN1C[C@H](CO)C[C@H]2c3cccc4[nH]cc(c34)C[C@@H]21` showed a pKa of 8.84.
Compound `[NH3+]Cc1nc2ccccc2[nH]1` has a pKa of 3.28.
`O=C(c1ccccc1)n1cnc2ccccc21` gave a pKa of 1.8.
With `Nc1ccc(-c2ncc(-c3ccccc3)o2)cc1` the pKa was 3.01.
Compound `CCN(C)CCOCCN(CC)CC` has a pKa of 10.1.
In the case of `c1ccc(CNC23OC4C5C6CC(C7C6C4C72)C53)cc1` (stereo unspecified), the pKa is reported as 7.07.
`Cc1cnc2c(C)ccc([N+](=O)[O-])c2c1NCCC[NH+](C)C` gave a pKa of 6.1.
Compound `CCN(CC)CC(=O)Nc1ccc([N+](=O)[O-])cc1` has a pKa of 8.05.
`Nc1ccc([NH3+])c(N)c1` showed a pKa of 3.69.
For `CCCCCCCCCCCCCCN(CC(C)O)CC(O)CC` (stereo unspecified), the pKa was 6.1.
Work on `CN(C)c1ccc(/C=C/c2cc[n+]([O-])cc2)cc1` yielded a pKa of 4.3.
Work on `c1cncc([C@@H]2CCCCN2)c1` yielded a pKa of 4.01.
For `COc1ccnc2c1ccc1c(OC)ccnc12`, the pKa was 6.45.
In the case of `CC(=O)Nc1ccccn1`, the pKa is reported as 4.09.
With `NCCCCCCC#CC#CCCC(=O)[O-]` the pKa was 10.7.
Compound `COc1ccc(S(=O)(=O)NCCN2CCOCC2)c(OC)c1OC` has a pKa of 6.16.
With `CCN(CC)Cc1ccccc1OC` the pKa was 10.2.
With `Sc1cc2ccccc2cn1` the pKa was 0.39.
Compound `Cc1c[nH+]c(C)cn1` has a pKa of -4.42.
Work on `CCC(=O)C(C[C@H](C)N1CCOCC1)(c1ccccc1)c1ccccc1` yielded a pKa of 6.73.
Compound `Nc1ccc(-c2ccc(N)cc2)cc1` has a pKa of 4.96.
With `CCOCCN(C)c1ccccc1` the pKa was 4.8.
With `O=[N+]([O-])c1cccc(Nc2ccccc2)c1` the pKa was -1.27.
In the case of `COCCN(CCOC)c1ccccc1`, the pKa is reported as 4.11.
For `CNc1cc[nH+]c([O-])n1`, the pKa was 4.55.
Compound `N#CC(N)c1ccccc1` (stereo unspecified) has a pKa of 4.4.
In the case of `CC/C(N)=N/O`, the pKa is reported as 5.95.
For `NC(=O)/C=C(\O)c1ccncc1`, the pKa was 7.36.
Work on `CSc1ccc(N)c([N+](=O)[O-])c1` yielded a pKa of -0.28.
Compound `Cc1cc(NN)nc2ccccc12` has a pKa of 8.35.
In the case of `CC[NH+](CC)CCN=C(c1ccccc1C)c1ccccc1C`, the pKa is reported as 2.8.
For `CCc1nc(C)c[nH]1`, the pKa was 8.5.
In the case of `CN(C)CCSCC[NH+](C)C`, the pKa is reported as 8.
For `C[C@H](N)[C@H](C)N`, the pKa was 9.84.
`O=C([O-])CCCc1c[nH]cn1` showed a pKa of 7.62.
Work on `Cc1c([N+](=O)[O-])ccc2c(NCCC[NH+](C)C)ccnc12` yielded a pKa of 6.71.
For `CN(CC[NH3+])CC[NH+](C)C`, the pKa was 3.19.
With `C#C[C@]1(O)C[C@@H](C)N(C)[C@@H]2CCCC[C@H]21` the pKa was 9.53.
With `C[C@@H]1N[C@H]1C` the pKa was 5.33.
`C[C@H]1C[C@@H]2CCC[C@@H]2N1C` gave a pKa of 10.1.
In the case of `O=[N+]([O-])c1ccc([O-])c(CN2CCOCCOCCOCCOCCOCC2)c1`, the pKa is reported as 9.59.
Work on `C=C(C)C(=O)NC(C)(C)CCN(C)C` yielded a pKa of 9.37.
Work on `Cc1cccc(C)c1N(C)C` yielded a pKa of 5.85.
For `CCCSC(=O)CCCc1c[nH]cn1`, the pKa was 7.55.
With `NC1Cc2ccccc2C1` the pKa was 9.55.
Compound `C[C@H]1O[C@H](O[C@H]2CC[C@H](n3ccc(N)nc3=O)O[C@@H]2C)[C@H](O)[C@@H](O)[C@@H]1N(C)C` has a pKa of 7.
`CCCC(=O)SCCN(C)C` showed a pKa of 8.32.
